The results in this text go back to patent publication US9456589B2, “Elasmobranch-repelling compounds and methods of use” (priority 2005, dated 2016).

In one assay the test system is tiger sharks. Nature of the assay: Tonic immobility, Hd Syringe Assay. The class given is in vivo, G. cuvieri. The note with it: 1 ml. The procedure: (§1) One bioassay used to observe and measure flight response is the tonic immobility test. Tonic immobility is a state of paralysis that typically occurs when a shark is subject to inversion of its body along the longitudinal axis. This state is called “tonic,” and the shark can remain in this state for up to 15 minutes thereby allowing researchers to observe effects of chemical repellents. The “tonic” state of the shark is first established by releasing seawater in proximity to the “tonic” shark with the same delivery instrument and at the same distance as a “test” repellent compound will be released. Some controls are released with a high flow rate (30 mL/sec) in order to establish that sharks are not awakened by a jet of fluid over their noses. Once behavioral controls are established, a compound or composition that may have a repelling effect is delivered to the shark. If the compound or composition engenders a flight response, the shark will awaken from the tonic state and rapidly attempt to flee the delivered repellent. Using this tonic immobility bioassay researches can quantify the strength of a repellent effect.
Lemon, nurse, blacktip and tiger sharks were placed in tonic immobility by inverting the shark's body along its longitudinal axis. […]

For a further assay, the system named is blue sharks. Briefly: Tonic immobility, syringe delivery to the mouth of blue sharks. The class given is in vivo, Prionace glauca. The note with it: two blue sharks, two assays each, 20 mL or less. From the text: The sharks had been captured on rod and reel and were held in tonic immobility along a boat.
Assay [1] concerns sharks (lemon, nurse, blacktip, tiger, blacknose pooled). Briefly: Tonic immobility, Syringe 3/5/10 Assay, summary over species. The class given is in vivo. The procedure: as §1
In the tonic immobility studies disclosed herein, several different methods were employed for delivery of repelling compounds. A first method for delivery of chemical repellent in tonic immobility studies employed a “Syringe 3/5/10 Assay” method. The “Syringe 3/5/10 Assay” method is so named because a test repellent is delivered to a shark from a distance of about “3” inches with a bolus of about “5” mL with a response to the test repellent considered positive if the shark reacts with a change in behavior within less than about “10” seconds from the time of delivery.
The “3/5/10 Syringe Assay” as employed herein delivered a dose of 5-6 mL of a test chemical repellent from a syringe fixed with a needle having a gauge of about 22 from a distance at least 3 inches in front of a shark. Because the test chemical repellent was delivered at a distance from the shark's nares and mouth, a cloud of test chemical repellent was dispersed over the shark within the water column. The dispersed test repellent was subject to water current direction, dispersion and dilution. As a result, a flight response within 10 seconds was considered a positive repellency response. […] Time from delivery to response is related to the size of the bolus delivered from the syringe, distance of the shark from the syringe and water current.
In Syringe 3/5/10 Assays, 5-6 mL of 3-methylbutanal was delivered at least 3 inches in front of the shark's mouth. A cloud of the repellent dispersed over the shark within the water column. […] As noted above, because the dispersion of the chemical repellent upon delivery is affected by volume of repellent, water current, and other factors, the time between delivery and response was not correlatable with the potency of the repellent.

The subject of assay [2] is sharks (lemon, nurse, blacknose, blacktip pooled). Nature of the assay: Tonic immobility, Syringe Assay, summary over species. The class given is in vivo. Summed up: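 Test chemical delivered as a bolus of 60 mL or more from one to five feet from the shark, distance set by water current strength. Time from delivery until response was recorded; it depends on bolus size, distance and current as the diffusing cloud reaches the shark.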

As for `CC(C)CC=O` [3-methylbutanal], in the assay with tiger sharks, the “Response (time from delivery to response)” value turned out to be 1 s and the “TTI (termination of tonic immobility)” value is reported as “Y”. In addition, in the assay with blue sharks, the “response to direct delivery to the mouth” value is recorded as “behavioral response (classic mouth-agape response)”. In addition, in assay [1], the “Syringe 3/5/10 Y (termination of tonic immobility), trials of trials” value is listed as 7/7 and the “Syringe 3/5/10 Y, percent of trials” value was 100%. For the same compound, the “Syringe Y (termination of tonic immobility), trials of trials” value in assay [2] is reported as 7/7.
